The source of these data is patent US3969522A, “Diaryl-pyridyl-imidazole methanes for treating mycotic infections” (Bayer Aktiengesellschaft, priority 1972, dated 1976).

Type in all cases: cell-based
Test [1] relates to Trichophyton mentagrophytes. The experiment in a line: series dilution test in vitro, Trichophyton mentagrophytes. Particulars: Sabourauds' milieu d'epreuve, 28° C, 24 to 96 hours; for MIC: read-out: Minimum Inhibitory Concentration. How it is done: (§1) A. Determination of the antimycotic action spectrum in vitro by means of the series dilution test
(§2) Sabourauds' milieu d'epreuve is used as the nutrient substrate for dermatophytes and Aspergilli, and meat-broth-glucose-bouillon is used as the nutrient substrate for blastomyces. The incubation temperature is 28° C and the incubation time is 24 to 96 hours.

Test [2] concerns Candida albicans. In words: series dilution test in vitro, Candida albicans. Particulars: 28° C, 24 to 96 hours; for MIC: read-out: Minimum Inhibitory Concentration. How it is done:
as §1, §2

In test [3] the test system is Penicillium commune. In words: series dilution test in vitro, Penicillium commune. Particulars: 28° C, 24 to 96 hours; for MIC: read-out: Minimum Inhibitory Concentration. As to the method: as §1, §2
The test system of test [4] is Aspergillis niger. In words: series dilution test in vitro, Aspergillus niger. The note with it: Sabourauds' milieu d'epreuve, 28° C, 24 to 96 hours; for MIC: Aspergillus niger, read-out: Minimum Inhibitory Concentration. How it is done: as §1, §2

Converted amounts (≈) assume the structure as drawn. Where a name gives a salt, the structure may show the parent alone. A value given as a limit tells only on which side of the number the result lay.

Regarding `Cc1ccc(C(c2ccccc2)(c2ccccn2)n2ccnc2)cc1C` (stereo not drawn) [Example 1, 1-(3,4-dimethylphenyl-phenyl-2-pyridyl)-methyl-imidazole], the MIC is 0.5 µg/mL (≈ 1.47 µM) in test [1], 1 µg/mL (≈ 2.95 µM) in test [2], 4 µg/mL (≈ 11.8 µM) in test [3] and below 1 µg/mL in test [4].

Take `Cc1ccc(C(c2ccccc2)(c2ccccn2)n2ccnc2)c(C)c1` (stereo not drawn) [Example 2, 1-(2,4-dimethylphenyl-phenyl-2-pyridyl)-methyl-imidazole]: the MIC in test [1] came to 0.5 µg/mL (≈ 1.47 µM); in test [2], 10 µg/mL (≈ 29.5 µM); in test [3] it was 4 µg/mL (≈ 11.8 µM); in test [4] it was 4 µg/mL (≈ 11.8 µM).

As to `Cc1cccc(C)c1C(c1ccccc1)(c1ccccn1)n1ccnc1` (stereo not drawn) [Example 3, 1-(2,6-dimethylphenyl-phenyl-2-pyridyl)-methyl-imidazole hydrochloride], the MIC in test [1] turned out to be 0.5 µg/mL; in test [2] it was 1 µg/mL; in test [3], 10 µg/mL; in test [4], 4 µg/mL.

Consider `Cc1ccc(C(c2ccccc2)(c2ccncc2)n2ccnc2)c(C)c1` (stereo not drawn) [Example 4, 1-(2,4-dimethylphenyl-phenyl-4-pyridyl)-methyl-imidazole], for which the MIC in test [1] is 0.5 µg/mL (≈ 1.47 µM); in test [2] it was 4 µg/mL (≈ 11.8 µM); in test [3], 10 µg/mL (≈ 29.5 µM); in test [4] it was 4 µg/mL (≈ 11.8 µM).

Take `Cc1ccc(C(c2ccccc2)(c2ccncc2)n2ccnc2)cc1C` (stereo not drawn) [Example 5, 1-(3,4-dimethylphenyl-phenyl-4-pyridyl)-methyl-imidazole]: the “Minimum Inhibitory Concentration” value in test [1] worked out at 0.5 µg/mL; in test [3], 10 µg/mL; in test [4] it was 1 µg/mL. Further, the MIC in test [2] is 1 µg/mL (≈ 2.95 µM).

With `Cc1ccc(C)c(C(c2ccccc2)(c2ccncc2)n2ccnc2)c1` (stereo not drawn) [Example 6, 1-(2,5-dimethylphenyl-phenyl-4-pyridyl)-methyl-imidazole], the MIC in test [1] came out at 0.5 µg/mL (≈ 1.47 µM); in test [2], 4 µg/mL (≈ 11.8 µM); in test [3] it was 40 µg/mL (≈ 118 µM); in test [4] it was 40 µg/mL (≈ 118 µM).

As to `Cc1cccc(C(c2ccccc2)(c2ccccn2)n2ccnc2)c1C` (stereo not drawn) [Example 7, 1-(2,3-dimethylphenyl-phenyl-2-pyridyl)-methyl-imidazole], the “Minimum Inhibitory Concentration” value amounted to 0.05 µg/mL in test [1], 1 µg/mL in test [3] and 0.1 µg/mL in test [4]. The MIC in test [2] was found to be 1 µg/mL (≈ 2.95 µM).

For `Cc1cccc(C(c2ccccc2)(c2ccccn2)n2ccnc2)c1C` (stereo not drawn) [Example 8, 1-(2,3-dimethylphenyl-phenyl-2-pyridyl)-methyl-imidazole 1,5-naphthalenedisulphonate], the “Minimum Inhibitory Concentration” value in test [1] was 1 µg/mL; in test [2] it was 1 µg/mL; in test [3] it was 4 µg/mL; in test [4] it was 1 µg/mL.

As to `Cc1cccc(C(c2ccccc2)(c2ccncc2)n2ccnc2)c1C` (stereo not drawn) [Example 9, 1-(2,3-dimethylphenyl-phenyl-4-pyridyl)-methyl-imidazole], the MIC was found to be 0.5 µg/mL (≈ 1.47 µM) in test [1], 1 µg/mL (≈ 2.95 µM) in test [2], 4 µg/mL (≈ 11.8 µM) in test [3] and 1 µg/mL (≈ 2.95 µM) in test [4].

For the compound `Cc1ccc(C(c2ccccc2)(c2ccncc2)n2ccnc2)cc1C` (stereo not drawn) [Example 10, 1-(3,4-dimethylphenyl-phenyl-4-pyridyl)-methyl-imidazole 1,5-naphthalenedisulphonate], the “Minimum Inhibitory Concentration” value in test [1] came out at 10 µg/mL; in test [2] it was 1 µg/mL; in test [3], 4 µg/mL; in test [4] it was 4 µg/mL.

For `Fc1ccc(C(c2ccccc2)(c2ccccn2)n2ccnc2)cc1` (stereo not drawn) [Known Compound 1, 1-(4-fluorophenyl-phenyl-2-pyridyl)-methylimidazole, reference compound], the “Minimum Inhibitory Concentration” value in test [1] is above 2 µg/mL; in test [3] it was above 2 µg/mL; in test [4], 2 µg/mL. Moreover, the MIC in test [1] was below 4 µg/mL; in test [2] it was 4 µg/mL (≈ 12.1 µM); in test [3], below 4 µg/mL; in test [4], 4 µg/mL (≈ 12.1 µM).

For the compound `FC(F)(F)c1cccc(C(c2ccccc2)(c2ccccn2)n2ccnc2)c1` (stereo not drawn) [Known Compound 2, 1-(3-trifluoromethylphenyl-phenyl-2-pyridyl)-methylimidazole, reference compound], the “Minimum Inhibitory Concentration” value in test [1], in test [3] and in test [4] was above 2 µg/mL in each case. The MIC is below 4 µg/mL in test [1], 4 µg/mL (≈ 10.5 µM) in test [2], below 4 µg/mL in test [3] and below 4 µg/mL in test [4].
